Data on 85 compounds can be found in PubChem BioAssay AID1845228.

The conditions of this data set: pampa; 60.0 min; 50.0 µM.
With `N[C@@H](COC(c1cccc(F)c1)c1ccccc1OCc1ccccc1)C(=O)O` (stereo not given in full), the Papp (in general, a coefficient for how fast a substance crosses the barrier) was below 1 ×10⁻⁶ cm/s. `Cc1ccc(=O)n(-c2ccccc2)c1` returned a Papp of 14 ×10⁻⁶ cm/s. Then `O=C1[C@H](CC[C@H](O)c2ccc(F)cc2)[C@@H](c2ccc(O)cc2)N1c1ccc(F)cc1`, with below 1 ×10⁻⁶ cm/s; and `CNCCCOc1cc(F)c(-c2c(Cl)nc3ncnn3c2N[C@@H](C)C(F)(F)F)c(F)c1`, with 26 ×10⁻⁶ cm/s. In the case of `Cc1ccccc1N(C)C1CN([S+](=O)([O-])c2cccc(C(F)(F)F)c2)C1` it was above 300 ×10⁻⁶ cm/s; in that of `FC(F)(F)c1ccccc1-c1cc(C(F)(F)F)c2nc(C3=NOC4(CCCCC4)C3)[nH]c2c1`, 8 ×10⁻⁶ cm/s; in that of `CC(C)N(CCCCOCC(=O)NS(C)(=O)=O)c1cnc(-c2ccccc2)c(-c2ccccc2)n1`, 9 ×10⁻⁶ cm/s. Then `CCCN(CCC)C1CCc2cccc(O)c2C1` (stereo not given), with 88 ×10⁻⁶ cm/s; and `COc1ccc(Cn2c(-c3ccccc3)c(-c3ccccc3)c3c(=N)n(CCCCCO)cnc32)cc1`, with 206 ×10⁻⁶ cm/s. As to `COc1ccc(Cn2c(-c3ccccc3)c(-c3ccccc3)c3c(=N)n(CC(OC)OC)cnc32)cc1`, the Papp amounted to 272 ×10⁻⁶ cm/s. In the case of `C=CC1=C(C(=O)O)N2C(=O)[C@@H](NC(=O)/C(=N\O)c3csc(N)n3)[C@H]2SC1` it was below 1 ×10⁻⁶ cm/s; in that of `N#Cc1c[nH]c2c(C(=O)N3CCN(CCc4ccc(F)cc4)CC3)cccc12`, 121 ×10⁻⁶ cm/s.

On to `N=c1c2c(-c3ccccc3)c(-c3ccccc3)n(Cc3ccccc3)c2ncn1CC1CCCO1` (stereo not given), for which the Papp turned out to be 207 ×10⁻⁶ cm/s. In the case of `N=c1c2c(-c3ccccc3)c(-c3ccccc3)n(CCc3ccccc3)c2ncn1CCCCO`, the Papp worked out at 218 ×10⁻⁶ cm/s. The compound `CC1CN(c2cc3c(cc2F)c(=O)c(C(=O)O)cn3-c2ccc(F)cc2F)CCN1` (stereo not given) displayed a Papp of 5 ×10⁻⁶ cm/s. `N=c1c2c(-c3ccccc3)c(-c3ccccc3)n(CCc3ccccc3)c2ncn1CCCO` gave a Papp of 66 ×10⁻⁶ cm/s. In the case of `Cc1cc(CNC(=O)c2ccc3c(c2)n(CC2CC2)c(=O)n3C2CCCCC2)on1` it was above 300 ×10⁻⁶ cm/s; in that of `CCN1CCN(C(=O)N[C@@H](C(=O)N[C@]2(OC)C(=O)N3C(C(=O)O)=C(CSc4nnnn4C)CS[C@@H]32)[C@H](C)O)C(=O)C1=O`, below 1 ×10⁻⁶ cm/s; in that of `O=C1C[C@@]2(C(=O)N1)C(=O)N(Cc1ccc(Br)cc1F)C(=O)c1cccn12`, 21 ×10⁻⁶ cm/s. Then `O=C(Nc1ccc(S(=O)(=O)N2CCOCC2)cc1)c1cc(Cl)ccc1NS(=O)(=O)c1ccc(Cl)s1`, with 85 ×10⁻⁶ cm/s; and `COc1ccc(CCNC(=O)CCc2c(C)c3cc4c(C)coc4cc3oc2=O)cc1`, with 279 ×10⁻⁶ cm/s. In the case of `Nc1ccc(-c2ccc3ncc4ccc(=O)n(-c5cccc(C(F)(F)F)c5)c4c3c2)cn1` it was above 300 ×10⁻⁶ cm/s; in that of `CC(=O)NCCNC(=O)c1ccc(-c2ncc3cnc(-c4cccc(F)c4)cn23)cc1`, 11 ×10⁻⁶ cm/s; in that of `C/C(=C(\CCOC(=O)C(C)C)SS/C(CCOC(=O)C(C)C)=C(/C)N(C=O)Cc1cnc(C)nc1N)N(C=O)Cc1cnc(C)nc1N`, 3 ×10⁻⁶ cm/s. In turn, `COc1cc(OC)c(OC)cc1CN1CCc2nc(N3CCN(c4ccccc4F)CC3)ncc2C1` displayed a Papp above 300 ×10⁻⁶ cm/s. For the compound `Nc1c2ccccc2nc2ccccc12`, the Papp is 36 ×10⁻⁶ cm/s. Then `NC(=O)c1ccc(-c2ncc3cnc(-c4cccc(F)c4)cn23)cc1`, with 242 ×10⁻⁶ cm/s; and `[O-][n+]1cccc(/C(Cl)=N/OC[C@@H](O)CN2CCCCC2)c1`, with 2 ×10⁻⁶ cm/s.

`CO/N=C(/C(=O)N[C@@H]1C(=O)N2C(C(=O)O)=CCS[C@H]12)c1csc(N)n1` came in with a Papp below 1 ×10⁻⁶ cm/s. `O=C(c1ccc(-c2ncc3cnc(-c4cccc(F)c4)cn23)cc1)N1CC(O)C1` displayed a Papp of 27 ×10⁻⁶ cm/s.

Consider `COc1ccc(C)cc1Nc1c2c(nc3ccccc13)CCC2`, for which the Papp stood at 215 ×10⁻⁶ cm/s.

Regarding `CC(C)CN(CC(=O)N(CCCN1CCCC1=O)CC(N)=O)C(=O)CNCCc1ccccc1F`, the Papp is below 1 ×10⁻⁶ cm/s. Then `N=c1c2c(-c3ccccc3)cn(Cc3ccccc3)c2ncn1Cc1ccco1`, with 226 ×10⁻⁶ cm/s; and `CCn1c(C(=O)N(C2CC2)C2CC2)cc2c3c(ncn3C)c(Nc3cc(C)n(C)n3)nc21`, with 31 ×10⁻⁶ cm/s.

In turn, `CO/N=C(\C(=O)N[C@@H]1C(=O)N2C(C(=O)O)=C(CSc3nc(C)c(CC(=O)O)s3)CS[C@H]12)c1csc(N)n1` registered a Papp below 1 ×10⁻⁶ cm/s. For `Cn1c2cc(C=O)sc2c2cnn(Cc3ccccc3F)c(=O)c21`, the Papp amounted to 270 ×10⁻⁶ cm/s. In the case of `CC[C@@H](c1ccc(F)c(F)c1)n1c(C(=O)OC)c(-c2ccno2)[nH]c1=S` it was 195 ×10⁻⁶ cm/s. Then `N=c1c2c(-c3ccccc3)cn(Cc3ccccc3)c2ncn1CCCCO`, with 110 ×10⁻⁶ cm/s; and `O=C(Nc1cnn2ccc(N3CCC[C@@H]3c3cc(F)ccc3F)nc12)N1CC[C@H](O)C1`, with 3 ×10⁻⁶ cm/s. Then `CC1(C#N)CCN(c2c(C(=O)N3CCN(S(C)(=O)=O)CC3)cnc3ccc(F)cc23)CC1`, with 19 ×10⁻⁶ cm/s.

`CCCCOC(=O)NS(=O)(=O)c1sc(CC(C)C)cc1-c1ccc(Cn2ccnc2)cc1`: the Papp came to 180 ×10⁻⁶ cm/s. Then `COCCNC(=O)c1ccc(-c2ncc3cnc(-c4cccc(F)c4)cn23)cc1`, with 95 ×10⁻⁶ cm/s; and `CCOC(=O)c1cc(=O)c2c(OCC(COc3cccc4oc(C(=O)OCC)cc(=O)c34)OC(=O)[C@@H](N)CCCCN)cccc2o1`, with below 1 ×10⁻⁶ cm/s; and `O=S(=O)(Nc1cc(Cl)c(Oc2cnc3ccccc3c2)c(Cl)c1)c1ccc(Cl)cc1Cl`, with 24 ×10⁻⁶ cm/s. In the case of `NC(=O)C1=C(O)[C@@]2(O)C(=O)C3=C(O)c4c(O)cccc4C[C@H]3C[C@H]2CC1=O` it was 9 ×10⁻⁶ cm/s; in that of `CC(=O)N1CCN(C(=O)c2ccc(-c3ncc4cnc(-c5cccc(F)c5)cn34)cc2)CC1`, below 1 ×10⁻⁶ cm/s; in that of `CCC1=C[C@@H]2CN(C1)Cc1c([nH]c3ccccc13)[C@@](C(=O)OC)(c1cc3c(cc1OC)N(C)[C@H]1[C@@](O)(C(=O)OC)[C@H](OC(C)=O)[C@]4(CC)C=CCN5CC[C@]31[C@@H]54)C2`, 30 ×10⁻⁶ cm/s. For the compound `CCCN(CCC)C1CCc2ccc(O)cc2C1` (stereo not given), the apparent permeability (Papp) was found to be 26 ×10⁻⁶ cm/s. Then `Cc1cc(-c2nc(C(=O)Nc3cn(C4CCOCC4)nc3C(N)=O)co2)ccn1`, with 43 ×10⁻⁶ cm/s.

Consider `Cc1ccc(NC(=O)c2ccc(CN3CCNCC3)cc2)cc1Nc1nccc(-c2cccnc2)n1`, for which the Papp was 19 ×10⁻⁶ cm/s. In the case of `N#Cc1ccc(C(=O)Nc2ccc(Cl)c(-c3nc4ncccc4o3)c2)c(F)c1` it was 160 ×10⁻⁶ cm/s; in that of `CN(C(=O)/C=C/c1ccoc1)[C@@H]1CC[C@@]2(O)[C@H]3Cc4ccc(O)c5c4[C@@]2(CCN3CC2CC2)[C@H]1O5`, 13 ×10⁻⁶ cm/s.

In turn, `O=C1CCc2ccc(OCCCCN3CCN(c4cccc(Cl)c4Cl)CC3)cc2N1` had a Papp of 19 ×10⁻⁶ cm/s. In the case of `CCOc1ccc2ccccc2c1C(=O)N[C@@H]1C(=O)N2[C@@H]1SC(C)(C)[C@@H]2C(=O)O` it was below 1 ×10⁻⁶ cm/s. In the case of `O=C(N[C@H]1CCS[C@H]2CCC[C@@H](C(=O)O)N2C1=O)[C@@H](S)Cc1ccccc1` it was below 1 ×10⁻⁶ cm/s. Then `CC1NC(C(=O)O)Cc2c1[nH]c1ccccc21` (stereo not given), with below 1 ×10⁻⁶ cm/s; and `CCNC(=O)c1noc(-c2cc(C(C)C)c(O)cc2O)c1-c1ccc(CN2CCOCC2)cc1`, with 117 ×10⁻⁶ cm/s. For `CC1(C)S[C@@H]2[C@H](NC(=O)COc3ccccc3)C(=O)N2[C@H]1C(=O)O`, the Papp worked out at 6 ×10⁻⁶ cm/s. In the case of `Cn1nnnc1SCC1=C(C(=O)O)N2C(=O)[C@@H](NC(=O)[C@H](OC=O)c3ccccc3)[C@H]2SC1` it was below 1 ×10⁻⁶ cm/s. Regarding `O=C(Nc1cnc(Cl)nc1)c1ccc(F)c(F)c1`, the Papp turned out to be 61 ×10⁻⁶ cm/s. Then `CC=CC1=C(C(=O)O)N2C(=O)[C@@H](NC(=O)[C@H](N)c3ccc(O)cc3)[C@H]2SC1`, with 282 ×10⁻⁶ cm/s; and `CC(=O)OCC1=C(C(=O)O)N2C(=O)[C@@H](NC(=O)[C@H](N)c3ccccc3)[C@H]2SC1`, with below 1 ×10⁻⁶ cm/s; and `NCCCNCCCCNC(=O)C(O)NC(=O)CCCCCCN=C(N)N` (stereo not given), with 38 ×10⁻⁶ cm/s. Then `CCN(CC)CC(=O)Oc1ccc(NC(C)=O)cc1`, with 7 ×10⁻⁶ cm/s; and `Cc1cccc(-n2nnnc2S(C)(=O)=O)c1`, with 28.3 ×10⁻⁶ cm/s; and `CN1N=C2CCN(C(=O)[C@H](COCc3ccccc3)NC(=O)C(C)(C)N)C[C@]2(Cc2ccccc2)C1=O`, with 15 ×10⁻⁶ cm/s. In the case of `CCCCC/C=C/C(=O)CCc1ccc(O)c(OC)c1` it was 187 ×10⁻⁶ cm/s; in that of `O=C(c1ccc(-c2ncc3cnc(-c4ccccc4)cn23)cc1)N1CCS(=O)(=O)CC1`, 20 ×10⁻⁶ cm/s.

The compound `Cc1ccnc(NC(c2cccc(O)c2)c2ccc3ccc(C)nc3c2O)c1` (stereo not given) had a Papp of 115 ×10⁻⁶ cm/s. `CC(C)C[C@@H](C(=O)N[C@@H](Cc1ccc(OCc2ccccc2)cc1)C(=O)NC(C)(C)C)N(C)Cc1ccc(C(C)(C)C)cc1` gave a Papp above 300 ×10⁻⁶ cm/s.

Regarding `O=C(NO)c1cnc(NC2(c3ccccc3)CC2)nc1`, the Papp came out at 2 ×10⁻⁶ cm/s. In the case of `CCOC(=O)[C@H](CCc1ccccc1)N[C@@H](C)C(=O)N1C(=O)N(C)C[C@H]1C(=O)O` it was below 1 ×10⁻⁶ cm/s; in that of `CC1=C(C(=O)O)N2C(=O)C(NC(=O)C(N)C3=CCC=CC3)C2SC1` (stereo not given), below 1 ×10⁻⁶ cm/s. In the case of `CN1CCCC(=C(c2cccs2)c2cccs2)C1` it was below 1 ×10⁻⁶ cm/s; in that of `COc1cc(-c2nc(Cn3nnc(C(=O)Nc4cc(C)cc(C)c4)c3C)c(C)o2)cc(OC)c1OC`, 17 ×10⁻⁶ cm/s; in that of `COc1ccc(Cn2c(-c3ccccc3)c(-c3ccccc3)c3c(=N)n(CCO)cnc32)cc1`, 279 ×10⁻⁶ cm/s. In the case of `N=c1c2c(-c3ccccc3)c(-c3ccccc3)n(Cc3ccccc3)c2ncn1[C@H](CO)Cc1ccccc1` it was below 1 ×10⁻⁶ cm/s; in that of `Cc1ccccc1NC(=O)Nc1ccc(CC(=O)N(C)[C@@H](CC(C)C)C(=O)NCC[C@H](NC(=O)[C@@H]2CCCN2S(=O)(=O)c2cc(Cl)cc(Cl)c2)C(=O)O)cc1`, 5 ×10⁻⁶ cm/s; in that of `CN(C)CCn1nnnc1SCC1=C(C(=O)O)N2C(=O)[C@@H](NC(=O)Cc3csc(N)n3)[C@H]2SC1`, 6 ×10⁻⁶ cm/s. `CC[C@@]1(O)C(=O)OCc2c1cc1n(c2=O)Cc2cc3c(CN(C)C)c(O)ccc3nc2-1`: the Papp turned out to be 1.37 ×10⁻⁶ cm/s. In the case of `COCCNCCCn1c(C(=O)CF)c(-c2ccc(C)cc2)c2c(N)ncnc21` it was 20 ×10⁻⁶ cm/s; in that of `CC(OC(=O)NCC1(CC(=O)O)CCCCC1)OC(=O)C(C)C` (stereo not given), 143 ×10⁻⁶ cm/s; in that of `COc1cc2nc(N3CCC(N4CCCCC4)CC3)nc(NC3CCCCCC3)c2cc1OC`, 116 ×10⁻⁶ cm/s. `C[C@@H]1COCCN1c1cc(C2(S(C)(=N)=O)CC2)nc(-c2ccnc3[nH]ccc23)n1` (stereo not given in full) yielded a Papp of 33 ×10⁻⁶ cm/s. In the case of `CC1(C)SCCN(S(=O)(=O)c2ccc(Oc3ccncc3)cc2)[C@H]1C(=O)NO` it was 9 ×10⁻⁶ cm/s.
